One compound from patent US20260258000A1, “THYMIDYLATE SYNTHASE INHIBITORS AND USES THEREOF” (University of Florida Research Foundation, Incorporated, priority 2021, published 2026) can be followed below.

One data set has as its system PANC-1 cells. Nature of the data set: Cell viability (MTS) assay, PANC-1. The note with it: Homo sapiens; PANC-1, 72 hour drug incubation (FIG. 1C). Type of data set: cell-based. Here is the method: (§1) To prepare lysates, 0.5×10^6 PA NC-1 cells were seeded in 100 mm dishes in 10 ml DMEM High glucose and 24 hours later, 5-FU (Sigma) or 19-S were added at the specified concentrations. Cells were harvested after 72 hours and cell pellets were stored at −80° C. For GI50 determination, 3000 MIA PaCa-2 cells. […] After 72 hours, cell viability was assessed by reduction of MTS ((3-4,5-dimethylthiazol-2-yl)-5-(3-carboxymethoxyphenol)-2-(4-sulfophenyl)-2H-tetrazolium) using Cell Titer 96 R Aqueous One Solution Cell Proliferation Assay Kit (Promega), following manufacturer's recommendations. Chemiluminescent output (integration time 1000 ms) was measured on a SpectraMax M3® (Molecular devices). Data were normalized to max/minutes and plotted in GraphPad Prism for GI50 determination. Chemical synthesis details, including characterization of each compound, can be found in the supporting information document associated with this publication.

The next data set has as its system CM cells. Nature of the data set: Cell viability (MTS) assay, CM. The note with it: 72 hour drug incubation (FIG. 1C). Type of data set: cell-based.
The test system of data set [1] is TS protein expression in PANC-1 cells. As to the kind of experiment: Immunoblot analysis of TS expression in PANC-1 cells. Type of data set: cell-based. The note with it: PANC-1 cells treated 72 hours (FIG. 1D). The method, then: as §1, with “Data were normalized to max/minutes and plotted in GraphPad Prism for GI50 determination. Chemical synthesis details, including characterization of each compound, can be found in the supporting information document associated with this publication.” left out
Protein lysates were generated using RIPA buffer (Santa Cruz) for 20 minutes on ice, followed by 15 minutes centrifugation at 13,000 rpm, at 4° C. […] Protein was quantified using Bradford Assay (BioRad) following manufacturer's recommendations, standard curves were generated with bovine serum albumin (Fisher).
20 μg of total protein lysate was loaded per lane of 10% Tris Glycine Gel (Invitrogen). […] Signal was detected using West Pico Plus chemiluminescent substrate (Thermo Scientific) following manufacturer's recommendations. […] For protein level quantification relative to loading control, densitometric analysis was performed by ImageJ software.

The subject of data set [2] is H1048, CM, MIA PaCa-2, PANC-1 and Luc-PANC-1 cancer cell lines. As to the kind of experiment: Viability assay screen in a panel of cancer cell lines. Type of data set: cell-based. The note with it: 10 uM, 72 hours (FIG. 8). Here is the method:
Viability assay performed in a panel of cancer cell lines including H1048 (small cell lung cancer), CM (pancreatic neuroendocrine tumor), MIA PaCa-2 and PANC-1 (pancreatic ductal adenocarcinoma), Luc-PANC-1 (pancreatic ductal adenocarcinoma cells expressing firefly luciferase). Initial viability assay screens were performed with single drug concentration (10 μM) or DMSO control (0.25%). […] The threshold of 10 μM was selected since compounds showing under 50% viability at 10 μM would indicate greater cytotoxicity than disclosed TS inhibitor 5-FU and present a promising lead candidate for further study.
To identify potential TS small molecule inhibitors, molecular docking was used to computationally screen compounds with the ability to bind TS. The details of the procedure are presented in the Methods section. The top ranked 26 compounds were acquired and designated 1-A through 26-Z, then used to determine the cytotoxicity at a 10 uM concentration in several cancer cell lines. […] This initial computational screen provided a predictive model that allowed a preliminary assessment for possible drug candidates. Subsequent experiments were pursued to validate biological activity and to define mechanisms for TS inhibition.

The subject of data set [3] is Luc-CM disseminated tumors. Nature of the data set: Luc-CM disseminated xenograft tumor model. Type of data set: in vivo, NSG mice. Here is the method: Luc-PANC-1 (5×106) and Luc-CM (0.5×106) cells were resuspended in 200 ul of PBS and injected subcutaneously (SQ) or intraperitonially (IP) to 6-8-week-old NSG mice respectively. Tumor bearing mice were imaged using Xenogen IVIS® Lumina Bioluminescence Imaging System (Perkin Elmer) every week after cell injection. At 4 weeks, animals were randomized based on slope of luciferase signal and treatment was initiated. […] For all animals body weight was recorded weekly and Luc-PANC-1 tumor volume was measured weekly with a caliper. For scheduled sacrifice experiments, animals were euthanized after 4 weeks of treatment. […] Harvested tumors were excised and weighted, and fixed in alcoholic formalin (67.5% Ethanol, 10% Formaldehyde 37%, 22.5% water) for pathology analysis. Tumor volume was calculated as [volume=0.52 (length×width2)].
From this stock, the exact volume needed for daily in vivo delivery was then formulated into 95% corn oil (Mazola) at 2 different concentrations: 1.25 mg/mi (formulation 1) and 3.125 mg/ml (formulation 2). To determine the volume of solution administered to the mice, 200 μl (maximum volume to be delivered in mice via IP or oral gavage) was divided by 25 g of mouse body weight. Therefore, 8 μl of formulation 1 or 2 multiplied by the weight of the mice were used to reach a dose of 10 or 25 mg/kg of body weight, respectively.
Prior to bioluminescence imaging the region where tumors were located was shaved. Mice were then anesthetized with 2.5% isoflurane in 02 then administered the D-luciferin substrate (150 mg/kg in PBS) by IP injection. Following the injection of the D-luciferin substrate mice were imaged using the Xenogen IVIS® Lumina Bioluminescence Imaging System (Perkin Elmer). The peak of luciferase photon flux was recorded 6 minutes after injection of the D-luciferin substrate. The total photon flux was analyzed and restricted to tumor ROI (region of interest) using Living Image v2.60.1 software (Imaging Systems).

The next data set relates to MIA PaCa-2 cells. As to the kind of experiment: Cell viability (MTS) assay, MIA PaCa-2. Type of data set: cell-based. The note with it: Homo sapiens, MIA PaCa-2, 72 h. The method, then:
as §1

As a reminder, the GI50 is the concentration that inhibits growth by half.

As for `CCc1nc(N)nc(N)c1-c1ccc(N(C)Cc2ccccc2)c([N+](=O)[O-])c1` [Compound 19-S], the 50% growth inhibitory concentration (GI50) with PANC-1 cells is 8350 nM; with CM cells, 95 nM; in the data set on MIA PaCa-2 cells (MIA PaCa-2, 72-hour treatment, highest concentration 350 μM (FIG. 4E)) it was 200 to 840 nM; in the data set with MIA PaCa-2 cells (MIA PaCa-2, 72 hour drug incubation (FIG. 1C)), 1260 nM. The “TS protein expression (steady-state TS levels)” value in data set [1] is reported as “no increase in steady-state TS levels”. Moreover, in data set [2], the “cytotoxicity (viability)” value is listed as “exhibited cytotoxicity in the 5 cell lines examined”. In addition, the “body weight and behavior” value in data set [3] (25 mg/kg IP, 3 cycles) is on record as “did not show significant deviations in body weight or display adverse behavior”. Further, the “tumor progression (abdominal bioluminescence photon flux)” value in data set [3] (25 mg/kg IP, 3 cycles, p=0.0032 vs vehicle) was “efficiently inhibited tumor progression”. Besides, the body weight result in data set [3] (25 mg/kg oral gavage) is given as “no significant deviations in body weight”.
